According to ChEMBL document CHEMBL1201862, “PubChem BioAssay data set” (2004):
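Values below derive from 48-hour exposures of cells grown in 96-well plates, with endpoints linearly interpolated between the two concentrations bracketing the appropriate inhibition level. GI50: concentration for 50% inhibition of growth.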 Active and inactive are the calls of the source. Rule as the data show it: active = GI50 up to about 1.1 µM and inactive = higher.

Tests used:
Test in all cases: growth of human tumour cells (NCI), 48 h
A549 = tested on: A549
ACHN = tested on: ACHN
CAKI-1 = tested on: CAKI-1
IGROV-1 = tested on: IGROV-1
KM12 = tested on: KM12
LXFL 529 = tested on: LXFL 529
Malme-3M = tested on: Malme-3M
NCI-H23 = tested on: NCI-H23
NCI-H460 = tested on: NCI-H460
NCI-H522 = tested on: NCI-H522
OVCAR-3 = tested on: OVCAR-3
SK-MEL-28 = tested on: SK-MEL-28
SK-MEL-5 = tested on: SK-MEL-5
SNB-19 = tested on: SNB-19
U-251 = tested on: U-251
UACC-62 = tested on: UACC-62
SR = tested on: SR
BT-549 = tested on: BT-549
MDA-MB-435 = tested on: MDA-MB-435
PC-3 = tested on: PC-3

| Compound | GI50 (A549) | GI50 (ACHN) | GI50 (CAKI-1) | GI50 (IGROV-1) | GI50 (KM12) | GI50 (LXFL 529) | GI50 (Malme-3M) | GI50 (NCI-H23) | GI50 (NCI-H460) | GI50 (NCI-H522) | GI50 (OVCAR-3) | GI50 (SK-MEL-28) | GI50 (SK-MEL-5) | GI50 (SNB-19) | GI50 (U-251) | GI50 (UACC-62) | GI50 (SR) | GI50 (BT-549) | GI50 (MDA-MB-435) | GI50 (PC-3) |
| --- | --- | --- | --- | --- | --- | --- | --- | --- | --- | --- | --- | --- | --- | --- | --- | --- | --- | --- | --- | --- |
| CCCCCCC(/C=N/O)C(C)(O)CCC (stereo not drawn) | > 100 µM (inactive) | > 100 µM (inactive) | > 100 µM (inactive) | > 100 µM (inactive) | > 100 µM (inactive) | > 100 µM (inactive) | > 100 µM (inactive) | > 100 µM (inactive) | > 100 µM (inactive) | 37.7 µM (inactive) | > 100 µM (inactive) | > 100 µM (inactive) | > 100 µM (inactive) | > 100 µM (inactive) | > 100 µM (inactive) | > 100 µM (inactive) | – | – | – | – |
| NC(=O)c1coc(C2OC(CO)C(O)C2O)n1 (stereo not drawn) | > 100 µM (inactive) | > 100 µM (inactive) | > 10 µM (inactive) | > 100 µM (inactive) | > 100 µM (inactive) | > 100 µM (inactive) | > 100 µM (inactive) | > 100 µM (inactive) | > 100 µM (inactive) | > 100 µM (inactive) | > 100 µM (inactive) | > 100 µM (inactive) | – | > 100 µM (inactive) | > 100 µM (inactive) | > 100 µM (inactive) | > 100 µM (inactive) | – | – | – |
| O=C1[C@@H]2C(c3ccccc3[N+](=O)[O-])=NO[C@@H]2C(=O)N1c1ccc(Cc2ccc(N3C(=O)[C@H]4C(c5ccccc5[N+](=O)[O-])=NO[C@H]4C3=O)cc2)cc1 | – | > 100 µM (inactive) | > 100 µM (inactive) | > 100 µM (inactive) | > 100 µM (inactive) | > 100 µM (inactive) | > 100 µM (inactive) | > 100 µM (inactive) | > 100 µM (inactive) | > 100 µM (inactive) | > 100 µM (inactive) | > 100 µM (inactive) | > 100 µM (inactive) | > 100 µM (inactive) | > 100 µM (inactive) | > 100 µM (inactive) | > 100 µM (inactive) | – | – | – |
| OC12c3ccccc3C1CCCCCC21OCCCO1 (stereo not drawn) | > 100 µM (inactive) | > 100 µM (inactive) | > 100 µM (inactive) | > 100 µM (inactive) | > 100 µM (inactive) | > 100 µM (inactive) | > 100 µM (inactive) | > 100 µM (inactive) | > 100 µM (inactive) | > 100 µM (inactive) | > 100 µM (inactive) | > 100 µM (inactive) | > 100 µM (inactive) | > 100 µM (inactive) | > 100 µM (inactive) | > 100 µM (inactive) | – | – | – | – |
| CCC(C)(O)c1cn(-c2cccc(S(=O)(=O)O)c2)nn1 (stereo not drawn) | > 100 µM (inactive) | > 100 µM (inactive) | > 100 µM (inactive) | > 100 µM (inactive) | > 100 µM (inactive) | > 100 µM (inactive) | > 100 µM (inactive) | > 100 µM (inactive) | > 100 µM (inactive) | > 100 µM (inactive) | > 100 µM (inactive) | > 100 µM (inactive) | > 100 µM (inactive) | > 100 µM (inactive) | > 100 µM (inactive) | > 100 µM (inactive) | > 100 µM (inactive) | – | – | – |
| COC(=O)C(C(=O)C(=O)Nc1nnc(S)[nH]1)c1csc(N)n1 (stereo not drawn) | > 100 µM (inactive) | > 100 µM (inactive) | > 100 µM (inactive) | > 100 µM (inactive) | > 100 µM (inactive) | > 100 µM (inactive) | > 100 µM (inactive) | > 100 µM (inactive) | > 100 µM (inactive) | > 100 µM (inactive) | > 100 µM (inactive) | > 100 µM (inactive) | > 100 µM (inactive) | > 100 µM (inactive) | > 100 µM (inactive) | > 100 µM (inactive) | > 100 µM (inactive) | – | – | – |
| COc1cc(/C=N\O[Si](C)(C)C(C)(C)C)ccc1O[Si](C)(C)C(C)(C)C | > 100 µM (inactive) | 51.4 µM (inactive) | > 100 µM (inactive) | > 100 µM (inactive) | 83.6 µM (inactive) | 70.1 µM (inactive) | > 100 µM (inactive) | – | > 100 µM (inactive) | – | 22.3 µM (inactive) | – | > 100 µM (inactive) | 76.9 µM (inactive) | 30 µM (inactive) | > 100 µM (inactive) | – | – | – | – |
| Cc1cc(N(CCC#N)CCC#N)ccc1/C=C1N=C(/C=C/c2ccccc2)OC(=O)N\1 | > 100 µM (inactive) | > 100 µM (inactive) | > 100 µM (inactive) | > 100 µM (inactive) | > 100 µM (inactive) | > 100 µM (inactive) | > 100 µM (inactive) | > 100 µM (inactive) | > 100 µM (inactive) | > 100 µM (inactive) | 81.5 µM (inactive) | > 100 µM (inactive) | > 100 µM (inactive) | > 100 µM (inactive) | 61.5 µM (inactive) | > 100 µM (inactive) | – | – | – | – |
| CCOC(=O)CC1(C(=O)OCC)c2[nH]c3ccccc3c2CCN1Cc1ccccc1 (stereo not drawn) | 19.5 µM (inactive) | 21.2 µM (inactive) | 31 µM (inactive) | 18.3 µM (inactive) | 17.7 µM (inactive) | 25.4 µM (inactive) | 17.8 µM (inactive) | 15.9 µM (inactive) | 19 µM (inactive) | 13.2 µM (inactive) | 14.1 µM (inactive) | 20.4 µM (inactive) | 20 µM (inactive) | 38.4 µM (inactive) | 15 µM (inactive) | 17.1 µM (inactive) | 22 µM (inactive) | – | – | – |
| CN(C)[C@@H]1C(O)=C(C(=O)NCNCCCC(=O)O)C(=O)[C@@]2(O)C(O)=C3C(=O)c4c(O)cccc4[C@@](C)(O)[C@H]3C[C@@H]12 | > 100 µM (inactive) | > 100 µM (inactive) | > 100 µM (inactive) | > 100 µM (inactive) | > 100 µM (inactive) | > 100 µM (inactive) | – | > 100 µM (inactive) | > 100 µM (inactive) | > 100 µM (inactive) | > 100 µM (inactive) | > 100 µM (inactive) | > 100 µM (inactive) | > 100 µM (inactive) | > 100 µM (inactive) | > 100 µM (inactive) | > 100 µM (inactive) | – | – | – |
| Cn1ccc2c(C(=O)c3ccccc3)cccc2c1=O | 57.4 µM (inactive) | 85.9 µM (inactive) | 68.2 µM (inactive) | > 100 µM (inactive) | 42.9 µM (inactive) | 67.9 µM (inactive) | 45.4 µM (inactive) | – | 39.8 µM (inactive) | 21.3 µM (inactive) | 36.8 µM (inactive) | 60.5 µM (inactive) | 28.8 µM (inactive) | – | – | 31.6 µM (inactive) | 56.1 µM (inactive) | – | – | – |
| COc1ccc(-c2nc(N)nc(-c3cc(C)ccc3O)c2Cl)cc1 | 64.1 µM (inactive) | 47.2 µM (inactive) | 91.4 µM (inactive) | > 100 µM (inactive) | 65.5 µM (inactive) | 33 µM (inactive) | 31.8 µM (inactive) | 50.6 µM (inactive) | 38.3 µM (inactive) | 26.2 µM (inactive) | 30.6 µM (inactive) | 47.6 µM (inactive) | – | 32.9 µM (inactive) | 39.6 µM (inactive) | 29 µM (inactive) | > 100 µM (inactive) | – | – | – |
| COc1cc2cc(C(=O)N3CC(CCl)c4ccccc43)[nH]c2c(OC)c1OC (stereo not drawn) | 47.1 µM (inactive) | > 77.3 µM (inactive) | 61.2 µM (inactive) | > 100 µM (inactive) | 23.5 µM (inactive) | – | 36.5 µM (inactive) | > 100 µM (inactive) | 17.5 µM (inactive) | 17.2 µM (inactive) | > 100 µM (inactive) | > 100 µM (inactive) | 24.7 µM (inactive) | > 100 µM (inactive) | > 69.2 µM (inactive) | 55.5 µM (inactive) | 18.1 µM (inactive) | 28.6 µM (inactive) | 19.2 µM (inactive) | 21.9 µM (inactive) |
| CC1=C(C#N)C(=O)N(/N=C/c2ccc(Cl)cc2)C(=O)/C1=c1\o/c(=C2/C(=O)N(/N=C/c3ccc(Cl)cc3)C(=O)C(C#N)=C2C)c2nccnc12 | > 100 µM (inactive) | > 100 µM (inactive) | > 100 µM (inactive) | > 100 µM (inactive) | 47.1 µM (inactive) | – | > 100 µM (inactive) | > 100 µM (inactive) | > 100 µM (inactive) | > 100 µM (inactive) | > 100 µM (inactive) | > 100 µM (inactive) | 96.6 µM (inactive) | > 100 µM (inactive) | > 100 µM (inactive) | > 100 µM (inactive) | 80.5 µM (inactive) | > 100 µM (inactive) | > 100 µM (inactive) | 60.7 µM (inactive) |
| NC(=S)N/C=C1\C(=O)Oc2ccccc2C1=O | 97.1 µM (inactive) | 28.9 µM (inactive) | 20.7 µM (inactive) | 63.4 µM (inactive) | > 100 µM (inactive) | 85.7 µM (inactive) | 32.7 µM (inactive) | > 100 µM (inactive) | > 100 µM (inactive) | 69.2 µM (inactive) | 37.3 µM (inactive) | > 100 µM (inactive) | 42.3 µM (inactive) | 68.5 µM (inactive) | 43.8 µM (inactive) | 47.2 µM (inactive) | – | – | – | – |
| Cc1cnc2nc(-c3sccc3C)cc(O)c2c1 | 3.96 µM (inactive) | 8.85 µM (inactive) | 6.47 µM (inactive) | 1.49 µM (inactive) | 3.1 µM (inactive) | – | 1.37 µM (inactive) | 3.7 µM (inactive) | 2.99 µM (inactive) | 1.12 µM (active) | 3.13 µM (inactive) | 23 µM (inactive) | 1.23 µM (inactive) | 2.85 µM (inactive) | 4.86 µM (inactive) | 2.59 µM (inactive) | 0.471 µM (active) | 9.42 µM (inactive) | 0.342 µM (active) | 3.78 µM (inactive) |
